{
  "source": "patent US6403586B1",
  "about": "“Pyridazine derivatives and drugs containing the same as the active ingredient” (Kowa Co., Ltd., priority 1998, dated 2002)",
  "data": [
    {"system": "Interleukin-1β (IL-1β) Production in HL-60 cells", "assay": "Inhibitory activity against interleukin-1β production (Test 1)", "type": "cell-based", "conditions": "Homo sapiens, 72 h, lipopolysaccharide 10 μg/ml, culturing for 3 days, compared with control without test sample", "experimental": "(Inhibitory activity against interleukin-1β production)\nHL-60 cells were cultured for 4 days until confluence on RPMI 1640 medium with 10% fetal bovine serum (FBS) added thereto. The medium was centrifuged. The supernatant was discarded, and the cells were then suspended at 1×10^6 cells/me on RPMI 1640 medium with 3% FBS, and lipopolysaccharide was added to give a final concentration of 10 μg/ml. The culture was inoculated at 1 ml/well to a 24-well plate. A test compound was added at 1 μl/well, followed by culturing for 3 days. Three days later, the amount of interleukin-1β in each […] was determined by a comparison in yield with a control to which no test sample was added.", "units": {"IC50": "µM"}, "values": [
      {"smiles": "COc1ccc(-c2cc(=O)n(CCCl)nc2-c2ccc(OC)cc2)cc1", "note": "[Comp. Comp'd 1, reference compound]", "IC50": 29}
    ]},
    {"system": "not given", "assay": "not given", "conditions": "not given", "values": [
      {"smiles": "CNC(=O)c1cc(-c2ccc(OC)cc2)nn(CC=C(C)C)c1=O", "note": "[Example 57, 6-(4-Methoxyphenyl)-2-(3-methyl-2-butenyl)-4-methylcarbamoyl-2H-pyridazin-3-one]", "melting point": "103.6 to 104 °C"},
      {"smiles": "CNC(=O)c1cc(-c2ccc(SC)cc2)nn(CC2CC2)c1=O", "note": "[Example 65, 2-Cyclopropylmethyl-4-methylcarbamoyl-6-[4-(methylthio)phenyl]-2H-pyridazin-3-one]", "melting point": "116.5 to 118 °C"},
      {"smiles": "COc1ccc(-c2cc(C(=O)O)c(=O)n(CC=Cc3ccc(Cl)cc3)n2)cc1Cl", "note": "[Example 105, 4-carboxy-2-(4-chlorocinnamyl)-6-(3-chloro-4-methoxyphenyl)-2H-pyridazin-3-one]", "melting point": "183 to 183.8 °C"},
      {"smiles": "CNC(=O)c1cc(-c2ccc(OC)cc2)nn(C(C)C)c1=O", "note": "[Example 52, 2-Isopropyl-6-(4-methoxyphenyl)-4-methylcarbamoyl-2H-pyridazin-3-one]", "melting point": "154 to 154.3 °C"},
      {"smiles": "CNC(=O)c1cc(-c2ccc(OC)c(OC)c2)nn(CC(C)C)c1=O", "note": "[Example 53, 6-(3,4-Dimethoxyphenyl)-2-isobutyl-4-methylcarbamoyl-2H-pyridazin-3-one]", "melting point": "111.4 to 112.6 °C"},
      {"smiles": "COc1ccc(-c2cc(C(=O)NCc3ccccn3)c(=O)n(CC3CC3)n2)cc1", "note": "[Example 69, 2-Cyclopropylmethyl-6-(4-methoxyphenyl)-4-(2-pyridylmethyl)carbamoyl-2H-pyridazin-3-one]", "melting point": "98.6 to 99.3 °C"},
      {"smiles": "COC(=O)c1cc(-c2ccc(OC)c(Cl)c2)nn(CC=Cc2ccc(Cl)cc2)c1=O", "note": "[Example 34, 2-(4-Chlorocinnamyl)-6-(3-chloro-4-methoxyphenyl)-4-methoxycarbonyl-2H-pyridazin-3-one]", "melting point": "179.7 to 181.6 °C"},
      {"smiles": "CCOC(=O)Nc1cc(-c2ccc(OC)cc2)nn(Cc2ccccc2)c1=O", "note": "[Example 97, 2-benzyl-4-ethoxycarbonylamino-6-(4-methoxyphenyl)-2H-pyridazin-3-one]", "melting point": "152.1 to 162.5 °C"},
      {"smiles": "COc1ccc(-c2cc(NS(C)(=O)=O)c(=O)n(Cc3ccccc3)n2)cc1", "note": "[Example 122, 2-benzyl-4-methanesulfonylamino-6-(4-methoxyphenyl)-2H-pyridazin-3-one]", "melting point": "195 to 195.5 °C"},
      {"smiles": "COc1ccc(-c2cc(NC(=O)NC(C)C)c(=O)n(Cc3ccccc3)n2)cc1", "note": "[Example 123, 2-benzyl-4-(3-isopropylureido)-6-(4-methoxyphenyl)-2H-pyridazin-3-one]", "melting point": "200.2 to 201 °C"},
      {"smiles": "COc1ccc(-c2cc(NS(C)(=O)=O)c(=O)n(CC3CC3)n2)cc1", "note": "[Example 126, 2-cyclopropylmethyl-4-methanesulfonylamino-6-(4-methoxyphenyl)-2H-pyridazin-3-one]", "melting point": "203.3 to 203.9 °C"},
      {"smiles": "CNC(=S)c1cc(-c2ccc(OC)c(F)c2)nn(CC2CC2)c1=O", "note": "[Example 129, 2-cyclopropylmethyl-6-(3-fluoro-4-methoxyphenyl)-4-methylthiocarbamoyl-2H-pyridazin-3-one]", "melting point": "178 to 178.5 °C"},
      {"smiles": "COC(=O)c1cc(-c2ccc(OC)cc2)nn(Cc2ccc(N)cc2)c1=O", "note": "[Example 26, 2-(4-Aminobenzyl)-4-methoxycarbonyl-6-(4-methoxyphenyl)-2H-pyridazin-3-one]", "melting point": "160 to 161.9 °C"},
      {"smiles": "COc1ccc(-c2cc(NC(=O)OC(C)C)c(=O)n(CC=Cc3ccc(Cl)cc3)n2)cc1", "note": "[Example 88, 2-(4-chlorocinnamyl)-6-(4-methoxyphenyl)-4-isopropoxycarbonylamino-2H-pyridazin-3-one]", "melting point": "123.9 to 127.4 °C"},
      {"smiles": "COc1ccc(-c2cc(NC(=O)NC(C)C)c(=O)n(CC3CC3)n2)cc1", "note": "[Example 125, 2-cyclopropylmethyl-4-(3-isopropylureido)-6-(4-methoxyphenyl)-2H-pyridazin-3-one]", "melting point": "195.8 to 197 °C"},
      {"smiles": "COc1ccc(-c2cc(C(=O)NCc3ccccn3)c(=O)n(CC3CCCC3)n2)cc1", "note": "[Example 76, 2-Cyclopentylmethyl-6-(4-methoxyphenyl)-4-(2-pyridylmethyl)carbamoyl-2H-pyridazin-3-one]", "melting point": "126.6 to 127.5 °C"},
      {"smiles": "COc1ccc(-c2cc(NC(=O)OCc3ccccc3)c(=O)n(CC=Cc3ccc(Cl)cc3)n2)cc1", "note": "[Example 90, 4-benzyloxycarbonylamino-2-(4-chlorocinnamyl)-6-(4-methoxyphenyl)-2H-pyridazin-3-one]", "melting point": "190.5 to 191.7 °C"},
      {"smiles": "CNC(=O)c1cc(-c2ccc(OC)cc2)nn(CC=Cc2ccc(Cl)cc2)c1=O", "note": "[Example 85, 2-(4-Chlorocinnamyl)-6-(4-methoxyphenyl)-4-methylcarbamoyl-2H-pyridazin-3-one]", "melting point": "184.2 to 185.4 °C"},
      {"smiles": "COc1ccc(-c2cc(C(N)=O)c(=O)n(CC3CC3)n2)cc1", "note": "[Example 39, 4-Carbamoyl-2-cyclopropylmethyl-6-(4-methoxyphenyl)-2H-pyridazin-3-one]", "melting point": "182.2 to 183.3 °C"},
      {"smiles": "COC(=O)c1cc(-c2ccc(SC)cc2)nn(CC=Cc2ccc(Cl)cc2)c1=O", "note": "[Example 35, 2-(4-Chlorocinnamyl)-4-methoxycarbonyl-6-[4-(methylthio)phenyl]-2H-pyridazin-3-one]", "melting point": "123.3 to 126.2 °C"},
      {"smiles": "COc1ccc(-c2cc(C(=O)NCc3ccccc3)c(=O)n(CC3CCCC3)n2)cc1", "note": "[Example 75, 4-Benzylcarbamoyl-2-cyclopentylmethyl-6-(4-methoxyphenyl)-2H-pyridazin-3-one]", "melting point": "107.6 to 108.1 °C"},
      {"smiles": "CCOC(=O)Nc1cc(-c2ccc(OC)cc2)nn(CC2CC2)c1=O", "note": "[Example 95, 2-cyclopropylmethyl-4-ethoxycarbonylamino-6-(4-methoxyphenyl)-2H-pyridazin-3-one]", "melting point": "119.1 to 119.6 °C"},
      {"smiles": "COc1ccc(-c2cc(C(=O)NCc3ccccn3)c(=O)n(C)n2)cc1", "note": "[Example 78, 6-(4-Methoxyphenyl)-2-methyl-4-(2-pyridylmethyl)carbamoyl-2H-pyridazin-3-one]", "melting point": "122.4 to 122.9 °C"},
      {"smiles": "CNC(=O)c1cc(-c2ccc(OC)cc2)nn(Cc2ccc(Cl)cc2Cl)c1=O", "note": "[Example 82, 2-(2,4-Dichlorobenzyl)-6-(4-methoxy-phenyl)-4-methylcarbamoyl-2H-pyridazin-3-one]", "melting point": "154.2 to 156.2 °C"},
      {"smiles": "NC(=O)c1cc(-c2ccc(F)c(Cl)c2)nn(CC=Cc2ccccc2)c1=O", "note": "[Example 127, 4-carbamoyl-6-(3-chloro-4-fluorophenyl)-2-cinnamyl-2H-pyridazin-3-one]", "melting point": "211 to 212 °C"},
      {"smiles": "COC(=O)c1cc(-c2ccc(OC)cc2)nn(Cc2ccc(NC(=O)c3cccnc3)cc2)c1=O", "note": "[Example 27, 4-Methoxycarbonyl-6-(4-methoxyphenyl)-2-[4-(3-pyridylcarbonylamino)benzyl]-2H-pyridazin-3-one]", "melting point": "235.7 to 236.9 °C (dec.)"},
      {"smiles": "CNC(=O)c1cc(-c2ccc(OC)cc2)nn(CC#N)c1=O", "note": "[Example 46, 2-Cyanomethyl-6-(4-methoxyphenyl)-4-methylcarbamoyl-2H-pyridazin-3-one]", "melting point": "153.4 to 154.9 °C"},
      {"smiles": "COc1ccc(-c2cc(N)c(=O)n(Cc3ccccc3)n2)cc1", "note": "[Example 121, 4-amino-2-benzyl-6-(4-methoxyphenyl)-2H-pyridazin-3-one]", "melting point": "115.1 to 115.6 °C"},
      {"smiles": "CNC(=O)c1cc(-c2ccc(OC)cc2)nn(CC(=O)NCCO)c1=O", "note": "[Example 59, 2-(2-Hydroxyethyl)carbamoylmethyl-6-(4-methoxyphenyl)-4-methylcarbamoyl-2H-pyridazin-3-one]", "melting point": "240.2 to 241.2 °C"},
      {"smiles": "COc1ccc(-c2cc(C(=O)Nc3ccncc3)c(=O)n(CC3CC3)n2)cc1", "note": "[Example 70, 2-Cyclopropylmethyl-6-(4-methoxyphenyl)-4-(4-pyridyl)carbamoyl-2H-pyridazin-3-one]", "melting point": "181.3 to 181.5 °C"},
      {"smiles": "COC(=O)c1cc(-c2ccc(OC)c(F)c2)nn(CC2CC2)c1=O", "note": "[Example 18, 2-Cyclopropylmethyl-6-(3-fluoro-4-methoxyphenyl)-4-methoxycarbonyl-2H-pyridazin-3-one]", "melting point": "139.6 to 140.7 °C"},
      {"smiles": "COc1ccc(-c2cc(NC(C)=O)c(=O)n(CC=Cc3ccc(Cl)cc3)n2)cc1", "note": "[Example 113, 4-acetylamino-2-(4-chlorocinnamyl)-6-(4-methoxyphenyl)-2H-pyridazin-3-one]", "melting point": "158.7 to 161.9 °C"},
      {"smiles": "COC(=O)c1cc(-c2ccc(OC)c(OC)c2)nn(CC=Cc2ccc(Cl)cc2)c1=O", "note": "[Example 32, 2-(4-Chlorocinnamyl)-6-(3,4-dimethoxyphenyl)-4-methoxycarbonyl-2H-pyridazin-3-one]", "melting point": "117.5 to 118.7 °C"},
      {"smiles": "CNC(=O)c1cc(-c2ccc(OC)cc2)nn(CC(=O)NCc2ccccn2)c1=O", "note": "[Example 58, 6-(4-Methoxyphenyl)-4-methylcarbamoyl-2-(2-pyridylmethyl)carbamoylmethyl-2H-pyridazin-3-one]", "melting point": "194.7 to 195.8 °C"},
      {"smiles": "CNC(=O)c1cc(-c2ccc(OC)cc2)nn(CC2CCCC2)c1=O", "note": "[Example 72, 2-Cyclopentylmethyl-6-(4-methoxyphenyl)-4-methylcarbamoyl-2H-pyridazin-3-one]", "melting point": "107.4 to 107.8 °C"},
      {"smiles": "COC(=O)c1cc(-c2ccc(OC)cc2)nn(C)c1=O", "note": "[Example 1, 4-Methoxycarbonyl-6-(4-methoxyphenyl)-2-methyl-2H-pyridazin-3-one]", "melting point": "109.2 to 109.5 °C"},
      {"smiles": "COc1ccc(-c2cc(N)c(=O)n(CC3CC3)n2)cc1", "note": "[Example 124, 4-amino-2-cyclopropylmethyl-6-(4-methoxyphenyl)-2H-pyridazin-3-one]", "melting point": "110.8 to 111.3 °C"},
      {"smiles": "COC(=O)c1cc(-c2ccc(SC)cc2)nn(CC2CC2)c1=O", "note": "[Example 20, 2-Cyclopropylmethyl-4-methoxycarbonyl-6-[4-(methylthio)phenyl]-2H-pyridazin-3-one]", "melting point": "100.2 to 101.8 °C"}
    ]}
  ]
}
